Test system: T1, Pleurotus ostreatus NRC 620 laccase
T1 construct: gene pox2
Details: pH 4.5; ABTS 0.025-3 mM; crude culture supernatant

- Km: 1990 µM
SMILES: CCn1c(=NN=c2sc3cc(S(=O)(=O)O)ccc3n2CC)sc2cc(S(=O)(=O)O)ccc21 [ABTS, 2, 2´-azino-bis (3-ethylbenzothiazoline-6-sulphonic acid)]
